From patent US6632797B2, “Method of treating angiogenesis” (priority 1996, dated 2003)

Assays:
[1] = test system: carrageenan-induced inflammation; assay: Carrageenan-induced paw inflammation in mice (plethysmometer); type: in vivo; settings: intravenous injection before carrageenan (64 mg/kg stated for PP35-405); after 3.5 hrs
Method: Growth factors are implicated to participate in inflammatory conditions. Carrageenan (0.1 ml, 1%) was injected intraplantarly in one hind paw of two groups of mice, five animals in each group.
An intravenous injection of 64 mg/kg of 1,2-O-ethylene-β-D-fructopyranoside-2,3,4-trisphosphate (PP35-405) was administered immediately before the injection of carrageenan.
Injection of carrageenan induces inflammation which is measured by comparing the increase in paw volume using a plethysmometer.
In a procedure similar to the one described in Example 8, an intravenous injection of 1,5-dideoxy-1,5-imino-N-(2-phenylethyl)arabinitol-2,3,4-trisphosphate (PP35-508) was administered.
In a procedure similar to the one described in Example 8, an intravenous injection of myo-inositol-1,2,6-tris(carboxymethyl phosphonate) (PP40-402) was administered. 3.5 hrs after the injection of carrageenan the inflammation was retarded with 32% in the group recieving PP40-402. Thus the administration of PP40-402 markedly reduces the inflammatory condition.

[2] = test system: HIV (viral isolates from HIV-infected patients) in peripheral blood mononuclear cells (PBMC); assay: HIV infection of PBMC, HIV-antigen production by ELISA; type: cell-based; settings: normalized HIV-antigen production at day 7, control 100
Method: Growth factor activity is considered to be involved in the process of viral infections. Viral isolates from HIV-infected patients were used in order to induce an infection by adding peripheral blood mononuclear cells (PBMC) to a medium containing different concentrations of the sodium salt of D-3,4,5-tri-O-hexanoyl-myo-inositol-1,2,6-trisphosphate (PP10-202). 25 CCID50 (50% cell culture infections dose) of PBMC from HIV-infected patients were incubated with four different concentrations of PP10-202; 0.0625 mg/ml, 0.125 mg/ml, 0.250 mg/ml and 0.500 mg/ml. Another preparation, without any PP10-202 served as a control. The growth medium consisted of 10% fetal calf serum, […] glutamine, 100 IU/ml penicillin, 100 IU/ml streptomycin and 20 μg/ml gentamicin. The concentration of cells were 2×10^5 per ml. All preparations were incubated for 1 hour at 37° C.
PBMCs from healthy donors were then added to the preparation. Before addition, these cells were stimulated for three days with phytohemagglutinin (PHA). 0.5×10^6 PHA-stimulated PBMCs were added to each preparation, followed by incubation for 3 hours at 37° C. After extensive washing the cells were resuspended in growth medium supplemented with 10 IU/ml of interleukin-2 and seeded in quadruplicates of 100.000 cells in a 96-well microtite plate before further cultivation for 7 days. The HIV-antigen production was assayed at the seventh day using an ELISA-technique.

[3] = Binding constants to the polyamine spermine; type: physicochemical; settings: 1:1:5 complex; 0.1 M N-tetramethylbromide at 25° C.
Method: The interaction between a polyamine, spermine and different triphosphorylated compounds were investigated in order to determin the binding constants. Spermine is a basic polyamine comprising domains of similar basicity to basic domains in growth factors. Spermine and the different phosphorylated compounds forms different complexes and the 1:1:5 complex was used as the complex for determination of binding constants.
The following binding constants, log Ks was determined in 0.1 M N-tetramethylbromide at 25° C.: […]

[4] = test system: phosphatidyl inositol 3′ kinase (PI 3′-kinase); assay: Interstitial fluid pressure (PIF) in rat hind paw, wortmannin-induced decrease; type: in vivo, Wistar Möller rats; parameters: PIF (interstitial fluid pressure): dose or concentration left out as unconfirmed; settings: wortmannin in DMSO/saline, 5 μl subdermally; after 30 minutes; vehicle ca −0.7 mm Hg
Source text: The enzyme phosphatidyl inositol 3′ kinase (PI 3′-kinase) is implicated in a number of growth factor induced responses such as mitogenesis, chemotaxis, membrane ruffling and the balance between osteoclasts and osteoblasts. Furthermore it is known that inactivation of PI 3′ kinase leads to increased oedema formation expressed as a decrease of interstitial fluid pressure (PIF) in animal models.
An inhibitor of PI 3′ kinase such as wortmannin renders a decrease of PIF as a consequence of inactivation of PI 3′ kinase.
The measurements were performed on female Wistar Möller rats (200-250 g), anesthetized with pentobarbital (50 mg/kg i.p.).
PIF was measured on the dorsal side of the hind paw with sharpened glass capillarier (tip diameter 2-7 μm) filled with 0.5 M NaCl coloured with Evans Blue and connected to a serve-controlled counter pressure system. The punctures were performed through intact skin using a stereomicroscope. The pipette-tip was located 0.3-0.5 mm below the skin. Pressure measurements were made 2.5-3.0 mm from the center of injection. The normal transcapillary pressure gradient is about 0.5 mm Hg.
Three sets of experiments were performed with six animals in each set.
In the first set of experiment the vehicle for wortmannin, DMSO diluted in saline, 5 μl, was injected subdermally using a chromatography syringe. […]

[5] = test system: acetic acid-induced writhes; assay: Acetic acid writhing test (analgetic effect); type: in vivo, mice; settings: 64 mg/kg intravenous, sodium salt; 10-minute observation
Method: Two groups of mice, 10 animals per group, were used in order to investigate the analgetic effect of methyl α-D-rhamnopyranoside-2,3,4-trisphosphate (PP 35-406). The control group was given an intravenous dose of saline while the other group was given a dose of 64 mg/kg of the sodium salt of PP 35-406. Three minutes after intravenous dosing, each […] received an intraperitoneal injection of 1 ml of a 1% (w/w) solution of acetic acid. Directly after that procedure each animal was placed into individual observation chambers and the numbers of writhes elicited during the subsequent 10-minute period were recorded. After the observation period the animals were killed by cervical dislocation. The number of writhes during the observation period is an expression of the pain experienced by the animal. Percent protection was calculated as follows: […]((number of writhes in control group—number of writhes in treated animals)/(number of writhes in control group).

| Compound | inflammation retarded (increase in paw volume) [1] | log Ks [3] | also measured |
| --- | --- | --- | --- |
| O=P(O)(O)OC1CN(CCc2ccccc2)CC(OP(=O)(O)O)C1OP(=O)(O)O (stereo not drawn) [PP35-508, 1,5-dideoxy-1,5-imino-N-(2-phenylethyl)arabinitol-2,3,4-trisphosphate] | 27% |  |  |
| CCCCCC(=O)O[C@@H]1[C@@H](OC(=O)CCCCC)[C@@H](OP(=O)(O)O)[C@@H](OP(=O)(O)O)[C@H](OP(=O)(O)O)[C@H]1OC(=O)CCCCC [PP10-202, D-3,4,5-tri-O-hexanoyl-myo-inositol-1,2,6-trisphosphate] |  | 4.20 | HIV-infection ([2]; 0.0625 mg/ml): 75%; HIV-infection ([2]; 0.125 mg/ml): 41%; HIV-infection ([2]; 0.250 mg/ml): 33%; HIV-infection ([2]; 0.500 mg/ml): 20% |
| COC[C@H]1OC(=O)c2coc3c2[C@@]1(C)C1=C(C3=O)[C@@H]2CCC(=O)[C@@]2(C)C[C@H]1OC(C)=O [wortmannin, reference compound] |  |  | PIF (interstitial fluid pressure) [4]: −2.5 mm Hg |
| O=C(Nc1ccccc1)O[C@@H]1[C@@H](OC(=O)Nc2ccccc2)[C@@H](OP(=O)(O)O)[C@@H](OP(=O)(O)O)[C@H](OP(=O)(O)O)[C@H]1OC(=O)Nc1ccccc1 [PP11-201, D-3,4,5-tri-O-phenylcarbamoyl-myo-inositol-1,2,6-trisphosphate] |  | 4.71 |  |
| O=C(O)CP(=O)(O)OC1C(O)C(O)C(O)C(OP(=O)(O)CC(=O)O)C1OP(=O)(O)CC(=O)O (stereo not drawn) [PP40-402, myo-inositol-1,2,6-tris(carboxymethyl phosphonate)] | 32% |  |  |
| Methyl-6-O-butyl-α-D-mannopyranoside 2,3,4-trisphosphate [PP35-402] |  | 5.36 |  |
| 1,2-O-ethylene-β-D-fructopyranoside-2,3,4-trisphosphate [PP35-405] | 51% |  |  |
| CO[C@H]1O[C@H](C)[C@@H](OP(=O)(O)O)[C@H](OP(=O)(O)O)[C@@H]1OP(=O)(O)O [PP 35-406, methyl α-D-rhamnopyranoside-2,3,4-trisphosphate] |  |  | Percent protection (number of writhes) [5]: 19% |
